Consider eight molecules from article PMC12138978, “Mu Opioid Receptor Positive Allosteric Modulator BMS-986122 Confers Agonist-Dependent G Protein Subtype Signaling Bias” (Biochemistry, 2025).

Test [1] concerns the target T1, human MOR signaling through Gαz (Homo sapiens, UniProt P35372).
T1 construct: host or cells: HEK 293T, transient
The test is classed as cell-based.

Test [2] has as its target human MOR (Homo sapiens, UniProt P35372). Nature of the test: [3H]naloxone competition binding, MOR-CHO cell membranes, low-affinity buffer. The conditions noted are these: fold change of Ki, vehicle vs 10 μM BMS-986122.
Method: Chinese hamster ovary cells stably expressing the human MOR (MOR-CHO; obtained from Dr. George Uhl, NIDA Intramural Research Program, Baltimore, MD) were cultured in 10 cm dishes in Dulbecco’s modified Eagle’s medium (DMEM) supplemented with 5% fetal bovine serum and 100 U/mL penicillin–streptomycin at 37 °C in a 10% CO2 atmosphere. Cell membranes were isolated and homogenized as previously described, and membrane protein concentrations were determined with bovine serum albumin as the control as previously described. Membranes were stored at −80 °C until use.
[^3H]­Naloxone was used at a final concentration of 1.0 nM, and nonspecific binding was measured using 10 μM unlabeled naloxone. Membranes were added last to the incubation tube. All assays were performed at 25 °C and terminated by rapid vacuum filtration through Whatman #32 glass fiber filters using a Brandel cell harvester (Biomedical Research and Development Laboratories Inc., Gaithersburg, MD) followed by three ice-cold washes with 50 mM Tris-HCl, pH 7.4. Samples were collected and counted in 2 mL of Ecoscint A scintillation fluid (National Diagnostics, Atlanta, GA) for 2 min each using a LS 6500 scintillation counter (Beckman Coulter Inc., Fullerton, CA).
For competition binding experiments, the specific binding of the radioligand in the absence of other competing compounds was set at 100%. The percent of control binding was calculated for increasing concentrations of the competing compounds. A three- or four-parameter logistic curve was fit to the data by using SigmaPlot 11 (Systat Software Inc., San Jose, CA). […] Ki values were calculated as described previously. Statistical differences between Ki values were calculated using a two-tailed Student’s t test. Receptor binding data were reported as the mean Ki value ± SEM from three separate experiments performed in triplicate.
Test [3] has as its target T2, human MOR signaling through Gαz with RGS20 (Homo sapiens, UniProt P35372).
T2 construct: host or cells: HEK 293T, transient
Nature of the test: nanoBRET assay, MOR signaling through Gαz with RGS20 (RGSz1) coexpression. The test is classed as cell-based. The conditions noted are these: RGS20 coexpressed. On the technique in general: In BRET a luciferase serves as donor, and the signal depends on an acceptor being close.

For test [4], the target named is T3, human MOR signaling through Gαi3 (Homo sapiens, UniProt P35372).
T3 construct: host or cells: HEK 293T, transient
T3 sequence (P35372 whole entry): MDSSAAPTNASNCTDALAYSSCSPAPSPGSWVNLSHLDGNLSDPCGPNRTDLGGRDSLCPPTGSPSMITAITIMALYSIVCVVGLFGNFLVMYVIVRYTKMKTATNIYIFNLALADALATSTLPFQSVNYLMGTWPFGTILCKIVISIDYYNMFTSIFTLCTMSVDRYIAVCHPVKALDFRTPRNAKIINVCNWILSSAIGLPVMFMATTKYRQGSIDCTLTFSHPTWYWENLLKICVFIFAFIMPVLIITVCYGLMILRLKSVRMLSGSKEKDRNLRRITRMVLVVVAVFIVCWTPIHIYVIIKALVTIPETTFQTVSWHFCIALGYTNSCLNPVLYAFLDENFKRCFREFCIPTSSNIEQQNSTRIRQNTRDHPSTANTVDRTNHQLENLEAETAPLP
T3 sequence (P08754 2-354 partner limits assumed): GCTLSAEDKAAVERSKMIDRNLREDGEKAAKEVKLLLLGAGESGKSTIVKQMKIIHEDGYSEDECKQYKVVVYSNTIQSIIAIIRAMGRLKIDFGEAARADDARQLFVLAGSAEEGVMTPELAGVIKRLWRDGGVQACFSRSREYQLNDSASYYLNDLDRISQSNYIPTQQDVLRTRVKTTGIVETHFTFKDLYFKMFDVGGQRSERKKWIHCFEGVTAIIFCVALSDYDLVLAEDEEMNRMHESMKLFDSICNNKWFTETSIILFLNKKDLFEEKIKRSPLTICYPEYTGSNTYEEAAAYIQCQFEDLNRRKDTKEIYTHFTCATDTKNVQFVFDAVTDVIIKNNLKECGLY
In kind it is cell-based.

The target of test [5] is T4, human MOR signaling through Gαi2 (Homo sapiens, UniProt P35372).
T4 construct: host or cells: HEK 293T, transient
T4 sequence (P35372 whole entry): as the sequence (P35372 whole entry) above
T4 sequence (P04899 2-355 partner limits assumed): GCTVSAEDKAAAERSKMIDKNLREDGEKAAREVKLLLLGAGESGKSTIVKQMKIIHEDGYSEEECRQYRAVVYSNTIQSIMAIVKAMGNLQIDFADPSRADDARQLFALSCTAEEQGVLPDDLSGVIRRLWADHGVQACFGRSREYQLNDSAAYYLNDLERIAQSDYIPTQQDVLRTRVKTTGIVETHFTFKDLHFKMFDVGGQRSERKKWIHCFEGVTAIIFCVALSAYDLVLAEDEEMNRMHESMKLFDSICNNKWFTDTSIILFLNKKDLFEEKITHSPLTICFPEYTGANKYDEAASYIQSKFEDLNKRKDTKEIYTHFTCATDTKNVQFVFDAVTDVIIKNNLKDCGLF
In kind it is cell-based.

Test [6] has as its target T5, human MOR signaling through Gαi1 (Homo sapiens, UniProt P35372).
T5 construct: host or cells: HEK 293T, transient
In kind it is cell-based.

Test [7] concerns the target T6, human MOR signaling through GαoA (Homo sapiens, UniProt P35372).
T6 construct: host or cells: HEK 293T, transient
In kind it is cell-based.

Test [8] concerns the target T7, human MOR signaling through GαoB (Homo sapiens, UniProt P35372).
T7 construct: host or cells: HEK 293T, transient
In kind it is cell-based.

In test [9] the target is T8, human MOR signaling through GαoA, GαoB and Gαi3 (Homo sapiens, UniProt P35372).
T8 construct: host or cells: HEK 293T, transient
T8 sequence (P35372 whole entry): as the sequence (P35372 whole entry) above
Nature of the test: TruPATH BRET2 assay in HEK 293T cells compared with nanoBRET. In kind it is cell-based. The conditions noted are these: GαoB and Gαi3, 10 μM BMS-986122, Student's t test.

Test [10] addresses T9, MOR signaling through GαoB-i3ct (Homo sapiens, UniProt P35372).
T9 construct: expressed in transfected cells; host or cells: HEK 293T (inferred: same nanoBRET system)
Nature of the test: nanoBRET assay, MOR signaling through GαoB-i3ct chimera (data not shown). In kind it is cell-based.

Test [11] concerns human MOR signaling through different Gα subunits. Nature of the test: nanoBRET assay, comparison or average across Gα subunits. The conditions noted are these: for Average maximal increase in potency (EC50) caused by BMS-986122: average over Gα subunits, 10 μM BMS-986122. In kind it is cell-based.
Test [12] addresses human mu opioid receptor (MOR) (human) (UniProt P35372). Nature of the test: radioligand binding; competition with 1.0 nM [3H]naloxone on MOR-CHO cell membranes (50 ug membrane protein), in the presence of 10 uM BMS-986122; 60 min, 25 C; 50 mM Tris-HCl pH 7.4, 100 mM NaCl, 5 mM MgCl2, 1 mM EDTA, 1 mM DTT, 50 uM GDP (low-affinity buffer).
Test [13] shares this target.
Test [14] shares this target. Nature of the test: radioligand binding; competition with 1.0 nM [3H]naloxone on MOR-CHO cell membranes (50 ug membrane protein), vehicle; 60 min, 25 C; 50 mM Tris-HCl pH 7.4, 100 mM NaCl, 5 mM MgCl2, 1 mM EDTA, 1 mM DTT, 50 uM GDP (low-affinity buffer).

Values joined by “and” are separate entries in the source; they are usually repeats but may differ in a detail not shown here. Equal values may be shown once. Marks after values point to notes of the source that are not given here.

T5 sequence (P35372 whole entry): as above
T5 sequence (P63096 2-354 partner limits assumed): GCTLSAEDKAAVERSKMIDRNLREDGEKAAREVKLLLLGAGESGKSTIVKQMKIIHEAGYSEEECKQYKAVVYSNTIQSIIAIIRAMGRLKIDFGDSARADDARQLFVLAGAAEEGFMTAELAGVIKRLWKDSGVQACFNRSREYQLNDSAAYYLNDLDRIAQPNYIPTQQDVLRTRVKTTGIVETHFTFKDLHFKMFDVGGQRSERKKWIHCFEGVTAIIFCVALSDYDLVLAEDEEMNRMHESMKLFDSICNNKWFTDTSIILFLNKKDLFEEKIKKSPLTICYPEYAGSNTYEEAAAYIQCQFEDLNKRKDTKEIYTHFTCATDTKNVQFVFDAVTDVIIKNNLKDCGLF
T7 sequence (P35372 whole entry): as the sequence (P35372 whole entry) above
T7 sequence (P09471 2-354 isoform P09471-2 partner limits assumed): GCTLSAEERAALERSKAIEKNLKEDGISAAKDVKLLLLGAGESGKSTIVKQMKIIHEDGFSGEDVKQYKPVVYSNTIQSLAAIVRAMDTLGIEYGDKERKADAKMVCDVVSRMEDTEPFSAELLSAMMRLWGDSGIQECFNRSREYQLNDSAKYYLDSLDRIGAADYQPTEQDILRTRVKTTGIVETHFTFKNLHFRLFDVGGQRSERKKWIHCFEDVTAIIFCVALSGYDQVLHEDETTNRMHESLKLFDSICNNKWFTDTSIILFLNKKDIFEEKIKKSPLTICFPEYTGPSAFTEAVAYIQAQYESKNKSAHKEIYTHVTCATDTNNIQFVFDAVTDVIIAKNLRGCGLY
human mu opioid receptor (MOR) (human), sequence (P35372 whole entry): as the sequence (P35372 whole entry) above
human MOR, sequence (P35372 whole entry): as above
T6 sequence (P35372 whole entry): as above
T6 sequence (P09471 2-354 partner limits assumed): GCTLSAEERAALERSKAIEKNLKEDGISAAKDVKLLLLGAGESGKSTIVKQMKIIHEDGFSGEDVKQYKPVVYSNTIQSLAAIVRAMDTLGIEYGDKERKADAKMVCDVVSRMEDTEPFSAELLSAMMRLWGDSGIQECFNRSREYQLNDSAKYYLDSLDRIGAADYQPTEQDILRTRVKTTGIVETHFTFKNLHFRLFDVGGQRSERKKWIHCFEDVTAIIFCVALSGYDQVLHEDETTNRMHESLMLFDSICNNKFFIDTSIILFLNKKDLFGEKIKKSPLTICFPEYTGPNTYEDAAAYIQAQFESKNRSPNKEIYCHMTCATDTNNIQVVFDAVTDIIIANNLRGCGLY
T1 sequence (P35372 whole entry): as the sequence (P35372 whole entry) above
T1 sequence (P19086 2-355 partner limits assumed): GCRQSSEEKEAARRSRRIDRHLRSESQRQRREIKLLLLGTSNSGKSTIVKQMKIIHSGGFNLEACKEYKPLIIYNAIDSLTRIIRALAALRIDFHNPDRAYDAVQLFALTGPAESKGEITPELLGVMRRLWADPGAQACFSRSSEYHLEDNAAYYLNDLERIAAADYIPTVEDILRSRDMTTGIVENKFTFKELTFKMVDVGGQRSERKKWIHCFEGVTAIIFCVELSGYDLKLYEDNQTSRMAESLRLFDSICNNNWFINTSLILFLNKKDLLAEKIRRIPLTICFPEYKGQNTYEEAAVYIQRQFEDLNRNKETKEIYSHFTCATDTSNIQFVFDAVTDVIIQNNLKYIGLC
T9 sequence (P35372 whole entry): as the sequence (P35372 whole entry) above
T2 sequence (P35372 whole entry): as above
T2 sequence (P19086 2-355 partner limits assumed): as the sequence (P19086 2-355 partner limits assumed) above

The Emax is the size of the effect at its maximum, as opposed to the concentration needed. In the case of `CC(C)=CCN1CCC2(C)c3cc(O)ccc3CC1C2C` (single isomer, unassigned; (-)) [(−)-Pentazocine], the Emax in [1] is 105 ± 1.8% and 110 ± 6.7%; in [4] it was 70 ± 1.8% and 102 ± 1.8%; in test [5] it was 35 ± 2.0% and 66 ± 4.3%; in [6], 56 ± 1.4% and 105 ± 1.2%; in test [7], 48 ± 2.2% and 88 ± 3.0%; in test [8], 74 ± 0.33% and 96 ± 2.6%. Also, the “Ki (Veh)/Ki (BMS)” value in test [2] is listed as 1.0 ns. In addition, the “Emax with RGS20 coexpression versus without” value in test [3] is on record as “dramatically reduced”.

Take `CC[C@@H]1CN2CC[C@@]3(O)C(=Nc4cccc(OC)c43)[C@@H]2C[C@@H]1/C(=C\OC)C(=O)OC` [7-Hydroxymitragynine]: the Emax in [1] is 33 ± 3.0% and 65 ± 4.1%. Also, in [2], the “Ki (Veh)/Ki (BMS)” value amounted to 1.1 ns. Further, the “Δlog(τ) in TruPATH compared with nanoBRET” value in test [9] is on record as “not statistically different”. For the same molecule, in test [10], the “Efficacy modulation by BMS-986122” value is “reduced” and the Intrinsic efficacy result is listed as “increased substantially”.

For `COc1cc(Br)ccc1C1SCCN1S(=O)(=O)c1ccc(Cl)cc1` (stereo not drawn) [BMS-986124], in test [5], the “Antagonism of the effect of 3 μM BMS-986122 on the potency of DAMGO” value was “antagonized the effect of 3 μM BMS-986122, but not completely” and the “Antagonism of the effect of 3 μM BMS-986187 on the potency of DAMGO” value is listed as “partially block the effect of 3 μM BMS-986187”.

Take `Cc1ccccc1COc1ccc(C2C3=C(CC(C)(C)CC3=O)OC3=C2C(=O)CC(C)(C)C3)cc1` [BMS-986187]: the “ΔΔlog(τ)oB-i3” value in test [11] (7-hydroxymitragnine as agonist, 10 μM PAM, relative transduction coefficients compared between Gαi3 and GαoB) was determined as 0.157.

As for `C[C@@H](NC(=O)[C@@H](N)Cc1ccc(O)cc1)C(=O)NCC(=O)N(C)[C@@H](Cc1ccccc1)C(=O)NCCO` [DAMGO, [D-Ala 2, N-MePhe 4, Gly-ol]-enkephalin], the ΔpEC50 is 0.529 ± 0.087 in test [1]; 0.467 ± 0.104 in [4]; 0.712 ± 0.064 in [5]; 0.596 ± 0.023 in test [6]; 0.667 ± 0.022 in [7]; 0.791 ± 0.109 in test [8]. Also, in [2], the “Ki (Veh)/Ki (BMS)” value is 6.8 ****. In addition, the “Average maximal increase in potency (EC50) caused by BMS-986122” value in test [11] is 4.5 fold.

Turning to `CSCC[C@H](NC(=O)[C@H](Cc1ccccc1)NC(=O)CNC(=O)CNC(=O)[C@@H](N)Cc1ccc(O)cc1)C(=O)O` [Met-Enkephalin, methionine-enkephalin], the “Average maximal increase in potency (EC50) caused by BMS-986122” value in test [11] stood at 3.8 fold.

Usually Ki stands for the dissociation constant of the complex between target and ligand, obtained from inhibition or displacement. As for “[D-Ala 2, N-MePhe 4, Gly-ol]-enkephalin (DAMGO) acetate (peptide)”, the Ki in test [12] is 35 nM. In [13], this molecule returned an EC50, nanoBRET G protein activation in HEK 293T cells, MOR signaling through Gαi1, vehicle of 58 nM; an EC50, nanoBRET G protein activation in HEK 293T cells, MOR signaling through Gαi2, vehicle of 46 nM; an EC50, nanoBRET G protein activation in HEK 293T cells, MOR signaling through Gαi2, with 10 μM BMS-986122 of 9.1 nM; an EC50, nanoBRET G protein activation in HEK 293T cells, MOR signaling through Gαi3, vehicle of 24 nM. In test [13], this molecule displayed an EC50, nanoBRET G protein activation in HEK 293T cells, MOR signaling through Gαi3, with 10 μM BMS-986122 of 7.3 nM; an EC50, nanoBRET G protein activation in HEK 293T cells, MOR signaling through GαoA, with 10 μM BMS-986122 of 10 nM; an EC50, nanoBRET G protein activation in HEK 293T cells, MOR signaling through GαoB, vehicle of 74 nM; an EC50, nanoBRET G protein activation in HEK 293T cells, MOR signaling through GαoB, with 10 μM BMS-986122 of 11 nM. Moreover, in [13], the EC50, nanoBRET G protein activation in HEK 293T cells, MOR signaling through Gαz, vehicle worked out at 10 nM and the EC50, nanoBRET G protein activation in HEK 293T cells, MOR signaling through Gαz, with 10 μM BMS-986122 turned out to be 3.2 nM. Besides, the Ki in test [14] came out at 240 nM.

Consider “methionine-enkephalin (met-enkephalin) acetate (peptide)”, for which, in test [12], the Ki was 48 nM. In addition, in test [13], the EC50, nanoBRET G protein activation in HEK 293T cells, MOR signaling through Gαi1, vehicle was determined as 52 nM; the EC50, nanoBRET G protein activation in HEK 293T cells, MOR signaling through Gαi1, with 10 μM BMS-986122 came to 10 nM; the EC50, nanoBRET G protein activation in HEK 293T cells, MOR signaling through Gαi3, with 10 μM BMS-986122 was 8.7 nM; the EC50, nanoBRET G protein activation in HEK 293T cells, MOR signaling through GαoA, vehicle was 53 nM. Besides, in test [13], the EC50, nanoBRET G protein activation in HEK 293T cells, MOR signaling through GαoB, vehicle worked out at 53 nM; the EC50, nanoBRET G protein activation in HEK 293T cells, MOR signaling through GαoB, with 10 μM BMS-986122 was 14 nM; the EC50, nanoBRET G protein activation in HEK 293T cells, MOR signaling through Gαz, with 10 μM BMS-986122 amounted to 17 nM.
